One assay deals with HCT116 cells. Kind of assay: MTT assay. To be noted: Homo sapiens, HCT-116, 72 h, Table 5F; HCT116 cells, 72 hours. Type of assay: cell-based. In a few lines: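 Read-out: MTT (0.5 mg/ml final, 4 h) after solubilization in 50% DMF/20% SDS, pH 4.7, with OD translated into cell number via the line's growth curve. Compound treatment lasted 72 h at 37 °C in 5% CO2, starting a day after plating.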
In general terms: Tetrazolium dyes change colour on reduction, which living cells bring about.

Assay [1] has as its system acetylated histone H-4 in T24 human bladder cancer cells. Kind of assay: Histone H4 acetylation in whole cells by immunoblots. Type of assay: cell-based. To be noted: T-24, Table 5F, 16 h, read-out: H4 Ac (T24) EC50. Summed up:
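Acetylated histone H4 was quantified by densitometry of ECL-developed immunoblots, probed with a polyclonal antibody, of […] total histone from T24 cultures exposed 16 h to HDAC inhibitors.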
On the technique in general: In western blotting, separated proteins are transferred to a membrane and probed.

Assay [2] concerns the target T1, cloned recombinant human HDAC-1 (Homo sapiens, UniProt Q13547).
T1 construct: made in house; host or cells: Baculovirus insect cell expression system
Briefly: Human HDAC-1 enzyme inhibition, Assay 1 ([3H]-acetylated histone substrate, scintillation counting). To be noted: Table 5F; read-out: Human HDAC-1 IC50. In kind it is biochemical. Summed up: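 Activity read as [3H]-acetic acid liberated from labeled substrate, ethyl acetate-extracted and scintillation-counted. Compounds preincubated 30 min at 4° C. with baculovirus-expressed, purified human HDAC-1. Dose-response curves give IC50 as concentration producing fifty percent of maximal inhibition.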

Where only a bound is given, the exact number is not on record here.

T1 sequence (Q13547 whole entry): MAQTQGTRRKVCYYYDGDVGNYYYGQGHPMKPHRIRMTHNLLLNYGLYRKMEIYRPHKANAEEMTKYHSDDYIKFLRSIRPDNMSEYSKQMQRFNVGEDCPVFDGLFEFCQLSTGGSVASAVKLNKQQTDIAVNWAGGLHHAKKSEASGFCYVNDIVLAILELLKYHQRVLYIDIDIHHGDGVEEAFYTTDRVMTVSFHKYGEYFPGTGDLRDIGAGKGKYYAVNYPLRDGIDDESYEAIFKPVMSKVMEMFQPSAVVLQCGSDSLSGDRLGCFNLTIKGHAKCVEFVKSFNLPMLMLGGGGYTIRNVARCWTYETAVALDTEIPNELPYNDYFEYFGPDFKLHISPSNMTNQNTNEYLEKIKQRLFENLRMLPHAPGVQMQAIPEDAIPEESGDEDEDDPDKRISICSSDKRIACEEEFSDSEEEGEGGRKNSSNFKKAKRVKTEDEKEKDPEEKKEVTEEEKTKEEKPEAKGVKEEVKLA

One may read the IC50 as the concentration at which inhibition is half-maximal. One may read the EC50 as the concentration giving half of the maximal effect. Regarding `Cc1cc(C)c(NCc2ccc(C(=O)Nc3ccccc3N)cc2)c(C)c1` [Cpd 410, N-(2-Amino-phenyl)-4-[(2,4,6-trimethyl-phenylamino)-methyl]-benzamide], the IC50 was found to be 100 nM with HCT116 cells and 900 nM in assay [2]. For the same molecule, the EC50 in assay [1] is above 5000 nM.

For `Nc1ccccc1NC(=O)c1ccc(NCc2ccc(F)cc2)cc1` [Cpd 413, N-(2-Amino-phenyl)-4-(4-fluoro-benzylamino)-benzamide], the IC50 (with HCT116 cells; in assay [2]) was 2000 nM each time. Besides, the 50% effective concentration (EC50) in assay [1] was determined as 3000 nM.

Regarding `COc1ccc(CNc2ccc(C(=O)Nc3ccccc3N)cc2)cc1` [Cpd 414, N-(2-Amino-phenyl)-4-(4-methoxy-benzylamino)-benzamide], the IC50 in the assay on HCT116 cells is 1000 nM; in assay [2], 3000 nM. Further, the EC50 in assay [1] is 1000 nM.

For the molecule `Nc1ccccc1NC(=O)c1ccc(CNc2ccc(F)cc2)cc1` [Cpd 415, N-(2-Amino-phenyl)-4-[(4-fluoro-phenylamino)-methyl]-benzamide], the IC50 in the assay with HCT116 cells worked out at 1000 nM; in assay [2], 3000 nM. In addition, the EC50 in assay [1] was 3000 nM.

Turning to `Nc1ccccc1NC(=O)c1ccc(NCc2cccc(F)c2)cc1` [Cpd 416, N-(2-Amino-phenyl)-4-(3-fluoro-benzylamino)-benzamide], the IC50 in the assay with HCT116 cells is 600 nM; in assay [2] it was 3000 nM. In addition, in assay [1], the EC50 is 1000 nM.

For the molecule `Nc1ccccc1NC(=O)c1ccc(CNc2cccc(F)c2)cc1` [Cpd 417, N-(2-Amino-phenyl)-4-[(3-fluoro-phenylamino)-methyl]-benzamide], the IC50 in the assay on HCT116 cells stood at 1000 nM; in assay [2], 3000 nM. In assay [1], the 50% effective concentration (EC50) turned out to be 1000 nM.

`Cc1cc(Cl)nc(NCc2ccc(C(=O)Nc3ccccc3N)cc2)n1` [Cpd 418, N-(2-Amino-phenyl)-4-[(4-chloro-6-methyl-pyrimidin-2-ylamino)-methyl]-benzamide]: the IC50 in the assay on HCT116 cells was determined as 900 nM; in assay [2], 3000 nM. In addition, the half-maximal effective concentration (EC50) in assay [1] was found to be 2000 nM.

For the molecule `Nc1ccccc1NC(=O)c1ccc(CNc2nc(Cl)cc(Cl)n2)cc1` [Cpd 419, N-(2-Amino-phenyl)-4-[(4,6-dichloro-pyrimidin-2-ylamino)-methyl]-benzamide], the concentration for half-maximal inhibition (IC50) was 1000 nM in the assay with HCT116 cells and 2000 nM in assay [2]. For the same molecule, the EC50 in assay [1] came to 5000 nM.

As for `Nc1ccccc1NC(=O)c1ccc(CNc2nc(Cl)cc(NCc3cccnc3)n2)cc1` [Cpd 420, N-(2-Amino-phenyl)-4-({4-chloro-6-[(pyridin-3-ylmethyl)-amino]-pyrimidin-2-ylamino]-methyl)-benzamide], the IC50 with HCT116 cells was found to be 700 nM; in assay [2], 3000 nM. Further, the EC50 in assay [1] was 1000 nM.

For `COc1ccc(NCc2ccc(C(=O)Nc3ccccc3N)cc2)cn1` [Cpd 421], the concentration for half-maximal inhibition (IC50) turned out to be 600 nM with HCT116 cells and 4000 nM in assay [2]. Moreover, the 50% effective concentration (EC50) in assay [1] was 1000 nM.

On to `Nc1ccccc1NC(=O)c1ccc(CNc2ccc(OC(F)(F)F)cc2)cc1` [Cpd 422, N-(2-Amino-phenyl)-4-[(4-trifluoromethoxy-phenylamino)-methyl]-benzamide], for which the IC50 is 900 nM in the assay on HCT116 cells and below 50 nM in assay [2]. Further, the 50% effective concentration (EC50) in assay [1] was 5000 nM.

As for `Nc1ccccc1NC(=O)c1ccc(CNc2cccc(OC(F)(F)F)c2)cc1` [Cpd 423, N-(2-Amino-phenyl)-4-[(3-trifluoromethoxy-phenylamino)-methyl]-benzamide], the IC50 in the assay with HCT116 cells was 1000 nM; in assay [2] it was 500 nM. Moreover, in assay [1], the EC50 turned out to be 3000 nM.

As to `Nc1ccccc1NC(=O)c1ccc(NCc2cccc(OC(F)(F)F)c2)cc1` [Cpd 425, N-(2-Amino-phenyl)-4-(3-trifluoromethoxy-benzylamino)-benzamide], the IC50 came to 600 nM in the assay with HCT116 cells and 2000 nM in assay [2]. Also, in assay [1], the EC50 amounted to 5000 nM.

Regarding `Nc1ccccc1NC(=O)c1ccc(NCc2ccc(OC(F)(F)F)cc2)cc1` [Cpd 426, N-(2-Amino-phenyl)-4-(4-trifluoromethoxy-benzylamino)-benzamide], the IC50 came out at 1000 nM with HCT116 cells and 2000 nM in assay [2]. Besides, in assay [1], the EC50 was 10000 nM.

For the origin of these results see patent US7868204B2, “Inhibitors of histone deacetylase” (MethylGene Inc., priority 2001, dated 2011).
